Experiments:
human GPR119 = target: T1, human GPR119 (Homo sapiens, UniProt Q8TDV5); experiment: cAMP assay in GPR119 transfected COS-7 cells; type: cell-based; conditions: COS-7 cells expressing human GPR119, agonists 30 min; read-out: EC50, production of cAMP
T1 construct: expressed in transfected cells; host or cells: COS-7 cells, calcium phosphate transfection
T1 sequence (Q8TDV5 1-335): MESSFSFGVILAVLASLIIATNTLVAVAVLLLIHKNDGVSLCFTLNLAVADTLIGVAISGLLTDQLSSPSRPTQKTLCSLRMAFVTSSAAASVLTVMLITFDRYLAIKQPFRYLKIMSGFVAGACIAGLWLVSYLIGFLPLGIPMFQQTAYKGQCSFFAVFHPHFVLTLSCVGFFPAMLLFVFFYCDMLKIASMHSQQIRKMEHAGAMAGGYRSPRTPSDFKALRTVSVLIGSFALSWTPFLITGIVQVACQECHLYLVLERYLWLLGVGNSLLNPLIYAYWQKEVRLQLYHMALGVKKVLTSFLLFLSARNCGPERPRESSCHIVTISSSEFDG
Experimental: COS-7 cells were cultured in Dulbecco's modified Eagle medium (DMEM) 1885 supplemented with 10% FBS, […] L-glutamine and 180 IU/ml penicillin+[…] streptomycin (Pen Strep) (Life Technologies, CA, USA) at 37° C. and 10% CO2. The COS-7 cells were transiently transfected with GPR119 or pcDNA by the calcium phosphate transfection method for 5 hours in 37° C., 10% CO2 as described by Kissow H, Hartmann B, Hoist J J, Viby N E, Hansen L S, Rosenkilde M M, Hare K J, Poulsen S S. Regul Pept. 2012. Vol: 179(1-3), pp 91-100; the disclosure of which is incorporated herein in its entirety by way of reference.
COS-7 cells were transfected with about 40 μg GPR119 DNA or pcDNA3 per […] flask. One day after transfection, the cells were seeded out (about 35,000 cell/well) in a 96 well white plate (Perkin Elmer, Massachusetts, USA). The cells were washed twice the following day and incubated for 30 min, at 37° C. with HBS and 1 mM IBMX (Sigma Aldrich, USA). Agonists were added for 30 min in the assay medium. The Hithunter® cAMP XS+ (DiscoveRx, Fremont, USA) was carried out by following the manufacturer's instructions.
Accordingly, the work outlined in this example evaluates whether activation of GPR119 by oleoyl-LPI in enteroendocrine L cell affect the proglucagon gene expression by monitoring the CREB activity. […]

pancreatic islets = experiment: Glucose-stimulated insulin secretion (GSIS) of isolated islets; type: cell-based, mice; conditions: 16.7 mM glucose
Experimental: After euthanasia, pancreatic islets were isolated as described in detail elsewhere (Carter, J. D., S. B. Dula, K. L. Corbin, R. P. Wu and C. S. Nunemaker (2009), Biological Procedures Online, Vol 11(1), pp:3-31). Following purification, islets were rested overnight at 37° C. in a humidified atmosphere of 95% air and 5% CO2 in RPMI 1640 medium supplemented with 10% FBS, 100 units/ml penicillin and 0.1 mg/ml streptomycin.
Glucose-stimulated insulin secretion (GSIS) was performed on isolated mouse islets after resting them overnight in supplemented RPMI 1640 medium at 37° C. in a humidified atmosphere of 95% air and 5% CO2. Briefly, islets were hand-picked and placed in groups of five into individual micro centrifuge tubes. Islets were washed twice, then incubated with Krebs buffer (KRB, 115 mM NaCl; 4.7 mM KCl; 1.28 mM CaCl2·2H2O; 1.2 mM KH2PO4; 1.2 mM MgSO4·7H2O; 10 mM NaHCO3; 10 mM HEPES; 0.5% BSA; pH 7.4) supplemented with 1.1 mM glucose for 40 minutes at 37° C. Supernatants were discarded, then islets were incubated with KRB supplemented with 16.7 mM glucose for 20 minutes. Supernatants were collected for insulin determination using Mouse Ultrasensitive Insulin ELISA (Mercodia, Uppsala, Sweden) according to manufacturer instructions and data was reported as picograms of Insulin per islet in 20 minutes (pg/islet/20 min).

ERK = ERK phosphorylation by Western blot, Glutag cells; type: cell-based, murine; conditions: time course over 2 hours
Experimental: When cell cultures reached 80-90%, media were removed and cells were washed twice with 1×PBS. The cells were lysed in 150 μl (for one well of a 6 well plate) of Triton X-100 lysis buffer, containing phosphatase inhibitor cocktail (1:1000) (Sigma Aldrich, UK) and protease inhibitor (1:1000, Sigma Aldrich, UK). Cells were detached with scrapers and lysate were collected and centrifuged at 10,000 rpm, 4° C. for 5 minutes. The supernatant was then transferred to a 1.5 ml microcentrifuge tube and used for protein quantification. Cell lysates were stored at −20° C. for longer storage. All lysates were prepared on ice.
Non-specific antibody binding was prevented by incubating the nitrocellulose membrane in 5% milk in PBS-0.05% Tween-20 (v/v) for 30 minutes on a rotating plate. The membrane was then washed in PBS-0.05% Tween-20 (v/v) and then incubated with the primary antibody diluted in PBS-0.05% Tween-20 (v/v) on a rotating plate overnight at 4° C. After 24 hours, the membrane was washed 5× for 5 minutes with PBS-0.05% Tween-20 (v/v), and then incubated on a rotating plate with the appropriate secondary antibody for 1 hour at room temperature. […]

EC50 (human GPR119): 239 nM
Substance: oleoyl-lysophosphatidylinositol [oleoyl-LPI]
insulin secretion response to stimulation (pancreatic islets; GPR119−/− islets): completely lost the ability to respond | enhancement of acute insulin secretion (pancreatic islets; wild type islets, oleoyl-LPI 20 μM, 20 minutes): approximately 50% | p-ERK, time course (ERK): increased p-ERK within 10 min and sustained a high level for 120 min

— patent publication US12503426B2, “Synthetic derivatives of oleoyl-lysophosphatidylinositol (oleoyl-LPI) and uses thereof” (LIPOVEXA SRL, priority 2017, dated 2025)
